What all share (assay type): cell-based
In experiment [1] the target is T1, human adrenergic receptor (ADR) α1B (Homo sapiens, UniProt P35368).
T1 construct: host or cells: rat chem-1 cells
T1 sequence (P35368 1-520): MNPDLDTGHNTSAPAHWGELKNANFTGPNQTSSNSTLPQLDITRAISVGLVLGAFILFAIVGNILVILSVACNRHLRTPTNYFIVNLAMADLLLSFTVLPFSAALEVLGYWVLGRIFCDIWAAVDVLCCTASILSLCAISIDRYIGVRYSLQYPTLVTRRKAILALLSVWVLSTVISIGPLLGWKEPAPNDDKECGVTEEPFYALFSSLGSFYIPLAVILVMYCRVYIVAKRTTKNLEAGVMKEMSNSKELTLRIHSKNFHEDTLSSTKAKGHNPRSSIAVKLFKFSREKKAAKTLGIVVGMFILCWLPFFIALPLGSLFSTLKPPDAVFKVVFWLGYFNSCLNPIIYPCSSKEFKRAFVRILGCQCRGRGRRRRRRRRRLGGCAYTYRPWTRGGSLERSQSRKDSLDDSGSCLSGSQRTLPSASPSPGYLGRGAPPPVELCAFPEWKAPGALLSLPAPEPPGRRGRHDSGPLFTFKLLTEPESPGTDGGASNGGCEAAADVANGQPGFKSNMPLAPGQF
Nature of the experiment: ADRα1B activation, Ca2+ influx (Fluo-8) in overexpressing chem-1 cells. The conditions noted are these: for ADRα1B Emax: % of maximal signal obtained by adrenaline, average (95% CI); for Emax: Chem-1, read-out: ADRα1B Emax. The text has this:
Cells overexpressing human ADRs α1A, α1B, α1D, α2A, α2B, β1 and β2 (Eurofins Discovery Services, St. Charles, MO, USA, product numbers: HTS087RTA, HTS158RTA, HTS216RTA, HTS096RTA, HTS157LRTA, HTS104RTA and HTS073RTA, respectively) were used to study the potency (EC50) and efficacy (Emax) of the selected compounds for these receptors by quantifying Ca^2+ influx upon receptor activation. ADRα1A, α1B, α1D, α2A, β1 and β2 were overexpressed in rat chem-1 cells. ADRα2B was overexpressed in HEK293 cells. The cells were seeded (10,000–50,000 cells/well) in a black 96-well plate (VWR International, Leuven, Belgium) and incubated at 37 °C and 5% CO2 for 24 h. After 24 h, the cells were washed with Hank’s balanced salt solution (HBSS) (Gibco, Paisley, UK) containing 0.35 g/L sodium bicarbonate and incubated with 5 µg/mL Fluo-8 AM in HBSS (pH 7.4) supplemented with 2.5 mM probenecid for 1 h. […] Peak tops of the obtained fluorescence response–time curves were corrected for baseline fluorescence and used to construct concentration–response relationships.
Concentration–response relationships for TAAR1 activation are presented as percentages of the maximal intracellular cAMP level induced by full the TAAR1 agonist phenethylamine and corrected for baseline cAMP accumulation. […] Experiments were run in duplicate in 7–9 independent experiments for ADR and were run in 3–5 independent experiments for TAAR1.

The target in experiment [2] is T2, human adrenergic receptor (ADR) α1D (Homo sapiens, UniProt P25100).
T2 construct: host or cells: rat chem-1 cells
T2 sequence (P25100 1-572): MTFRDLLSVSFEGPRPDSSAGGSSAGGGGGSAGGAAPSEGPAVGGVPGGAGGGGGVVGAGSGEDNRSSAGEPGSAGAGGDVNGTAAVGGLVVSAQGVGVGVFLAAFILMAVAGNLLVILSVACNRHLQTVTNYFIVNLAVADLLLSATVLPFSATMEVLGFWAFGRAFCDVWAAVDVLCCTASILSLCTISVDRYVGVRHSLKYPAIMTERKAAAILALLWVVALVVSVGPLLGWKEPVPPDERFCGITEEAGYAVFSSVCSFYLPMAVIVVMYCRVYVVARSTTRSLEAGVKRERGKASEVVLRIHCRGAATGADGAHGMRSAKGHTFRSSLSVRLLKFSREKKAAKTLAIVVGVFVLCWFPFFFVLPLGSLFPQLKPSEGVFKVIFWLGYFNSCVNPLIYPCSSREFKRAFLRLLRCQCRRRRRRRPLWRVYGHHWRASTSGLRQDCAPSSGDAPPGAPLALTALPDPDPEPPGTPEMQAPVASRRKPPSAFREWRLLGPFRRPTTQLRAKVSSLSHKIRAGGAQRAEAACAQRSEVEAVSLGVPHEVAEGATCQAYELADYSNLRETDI
Kind of experiment: ADRα1D activation, Ca2+ influx (Fluo-8) in overexpressing chem-1 cells. The conditions noted are these: for ADRα1D Emax: % of maximal signal obtained by adrenaline, average (95% CI); for EC50: Ca2+ response, chem-1 cells, average (95% confidence interval), 7–9 experiments; for Emax: Chem-1.

For experiment [3], the target named is T3, human trace amine-associated receptor 1 (TAAR1) (Homo sapiens, UniProt Q96RJ0).
T3 construct: expressed in transfected cells
T3 sequence (Q96RJ0 1-339): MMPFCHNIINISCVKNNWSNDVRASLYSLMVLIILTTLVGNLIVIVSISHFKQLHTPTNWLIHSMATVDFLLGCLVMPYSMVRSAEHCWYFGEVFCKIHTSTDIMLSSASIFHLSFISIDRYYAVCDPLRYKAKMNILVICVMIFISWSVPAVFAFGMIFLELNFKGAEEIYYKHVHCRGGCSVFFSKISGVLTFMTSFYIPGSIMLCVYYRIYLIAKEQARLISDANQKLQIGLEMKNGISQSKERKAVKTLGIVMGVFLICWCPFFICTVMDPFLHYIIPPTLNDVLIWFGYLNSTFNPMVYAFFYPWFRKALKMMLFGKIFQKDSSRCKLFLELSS
Nature of the experiment: TAAR1 activation, intracellular cAMP (ELISA) in HEK293T cells stably expressing human TAAR1. Conditions: for EC50: cAMP, HEK293T-hTAAR1 cells, 1 h exposure, average (95% confidence interval), 3–5 experiments; for Emax at 300 µM / Emax: HEK-293T; for Emax at 300 µM: read-out: TAAR1 effect at 300 µM, at 300 µM, % of the maximal effect obtained by phenethylamine, compounds that showed only an effect at 300 µM. The method, then: The cells were seeded (90,000–250,000 cells/well) in a 48-well plate two days before the assay. Two hours before the assay, the cells were incubated with the culture medium containing 10% charcoal-stripped foetal bovine serum (Gibco, Grand Island, NY, USA). The assay was performed in Earle’s balanced salt solution (EBSS) (Gibco, Paisley, UK), containing 15 mM HEPES (Gibco, Paisley, UK), 1 mM IBMX and 0.02% ascorbic acid. First, the cells were pre-incubated for 20 min in the supplemented buffer. Subsequently, the cells were exposed to the test compounds for 1 h in an incubator at 37 °C with 5% CO2. After 1 h, the buffer was discarded and the cells were lysed with 3% trichloroacetic acid and incubated at room temperature on a plate shaker for 2 h. Cell lysates were further diluted and cAMP was measured using a cAMP ELISA kit (Cayman Chemical, Ann Arbor, MI, USA), according to the manufacturer’s protocol.
Concentration–response relationships are shown as mean ± SD.
Background: ELISA stands for enzyme-linked immunosorbent assay.

The mark [4] stands for this setting: % of maximal cAMP level obtained by phenethylamine, average (95% CI).

By EC50 is commonly meant the concentration at which the effect is half-maximal. As for `CC(C)CC(C)N` (stereo not shown), in experiment [1], the EC50 was > 300 µM and the “ADRα1B Emax” value is recorded as “-”. Also, in experiment [2], the “ADRα1D Emax” value is given as “-” and the concentration giving a half-maximal response (EC50) was > 300 µM. Moreover, in experiment [3], the EC50 was > 300 µM.
For `CC(C)CCCC(C)N` (stereo not shown), in experiment [1], the EC50 is > 300 µM and the “ADRα1B Emax” value is reported as “-”. Also, in experiment [2], the “ADRα1D Emax” value is “-” and the concentration giving a half-maximal response (EC50) was > 300 µM. Besides, in experiment [3], the Emax at 300 µM was determined as 36% and the EC50 is > 300 µM.
On to `CCC(C)CC(C)N` (stereo not shown) [1,3-Dimethylamylamine, 1,3-dimethylamylamine], for which, in experiment [1], the EC50 is > 300 µM and the “ADRα1B Emax” value is given as “-”. In experiment [2], the “ADRα1D Emax” value was “-” and the EC50 was > 300 µM. In addition, in experiment [3], the Emax at 300 µM amounted to 52% and the EC50 is > 300 µM.
As to `CN(C)CCO` [Dimethylaminoethanol, dimethylaminoethanol], in experiment [1], the EC50 is > 300 µM and the “ADRα1B Emax” value was “-”. Moreover, in experiment [2], the “ADRα1D Emax” value is recorded as “-” and the EC50 is > 300 µM. Further, in experiment [3], the Emax at 300 µM was ~5% and the EC50 is > 300 µM.
As for `CN(C)CCc1ccccc1` [Dimethylphenethylamine, N,N-dimethylphenethylamine], the EC50 came out at 6.1 µM in experiment [1], 8.4 µM in experiment [2] and 21 µM in experiment [3]. Further, the Emax stood at 19% in experiment [1], 7.9% in experiment [2] and 64% in experiment [3] (setting [4]).
For the molecule `CNCC(O)c1ccccc1` (stereo not shown) [Halostachine, halostachine], the EC50 in experiment [1] is 1.1 µM; in experiment [2], 2.1 µM; in experiment [3], 74 µM. The Emax was determined as 77% in experiment [1], 82% in experiment [2] and 104% in experiment [3] (setting [4]).
Turning to `Oc1ccc(CC2NCCc3cc(O)c(O)cc32)cc1` (stereo not shown) [Higenamine, higenamine], the figures for the EC50 in experiment [1], in experiment [2] and in experiment [3] were > 300 µM, > 300 µM and 0.98 µM, respectively. In experiment [1], the “ADRα1B Emax” value was “-”. In addition, in experiment [2], the “ADRα1D Emax” value was “-”. The Emax in experiment [3] (setting [4]) amounted to 93%.
Consider `CN(C)CCc1ccc(O)cc1` [Hordenine, hordenine], for which the EC50 in experiment [1] amounted to 5.7 µM; in experiment [2] it was 34 µM; in experiment [3], 47 µM. Also, the Emax in experiment [1] was found to be 37%; in experiment [2], 23%; in experiment [3] (setting [4]), 82%.
`CC(C)NCC(O)c1ccc(O)cc1` (stereo not shown) [Isopropyloctopamine, isopropyloctopamine]: in experiment [1], the 50% effective concentration (EC50) is > 300 µM and the “ADRα1B Emax” value is “-”. Also, in experiment [2], the “ADRα1D Emax” value was “-” and the EC50 is > 300 µM. Moreover, the Emax in experiment [3] (setting [4]) worked out at 40%. In experiment [3], the EC50 worked out at 1.8 µM.
As to `CNC(C)C(O)c1ccc(O)cc1` (stereo not shown) [Methylsynephrine], the EC50 in experiment [1], in experiment [2] and in experiment [3] was > 300 µM each time. The “ADRα1B Emax” value in experiment [1] was “-”. Also, in experiment [2], the “ADRα1D Emax” value is reported as “-”. Moreover, in experiment [3] (setting [4]), the “TAAR1 Emax” value is recorded as “-”. The “activation of TAAR1” value in experiment [3] (concentrations up to 300 µM) is listed as “did not activate”.
Take `NCCc1ccccc1` [Phenethylamine, phenethylamine]: in experiment [1], the EC50 is > 300 µM and the “ADRα1B Emax” value is on record as “-”. Also, in experiment [2], the “ADRα1D Emax” value was “-” and the 50% effective concentration (EC50) was > 300 µM. Further, in experiment [3] (setting [4]), the Emax stood at 97%. The same molecule gave an EC50 in experiment [3] of 8.8 µM.
As to `NCCc1ccc(O)cc1` [Tyramine, tyramine], in experiment [1], the EC50 is > 300 µM and the “ADRα1B Emax” value is on record as “-”. In experiment [2], the “ADRα1D Emax” value is on record as “-” and the EC50 is > 300 µM. Moreover, the Emax in experiment [3] (setting [4]) was found to be 77%. Also, in experiment [3], a half-maximal response (EC50) required 9.5 µM.
For `NCC(O)c1ccc(O)cc1` (stereo not shown) [p-Octopamine, p-octopamine], the values for the EC50 in experiment [1], in experiment [2] and in experiment [3] were 3.9 µM, 1.2 µM and 46 µM, respectively. The Emax in experiment [1] was 94%; in experiment [2], 100%; in experiment [3] (setting [4]), 85%.
`CNCC(O)c1ccc(O)cc1` (stereo not shown) [p-Synephrine, p-synephrine]: the Emax in experiment [1] was 91%; in experiment [2], 80%; in experiment [3] (setting [4]) it was 85%. In experiment [3], this molecule registered an EC50 of 92 µM.
As for `CC(CN)c1ccccc1` (stereo not drawn) [β-Methylphenethyl-amine, beta-methylphenethylamine], in experiment [1], the EC50 is > 300 µM and the “ADRα1B Emax” value is listed as “-”. Besides, in experiment [2], the “ADRα1D Emax” value is reported as “-” and the EC50 is > 300 µM. Also, the Emax in experiment [3] (setting [4]) was 77%. This molecule also came in with a concentration for a half-maximal effect (EC50) in experiment [3] of 2.1 µM.

Values taken from PMC11174489, “In Vitro Activation of Human Adrenergic Receptors and Trace Amine-Associated Receptor 1 by Phenethylamine Analogues Present in Food Supplements” (Nutrients, 2024).
